Source: PMC11142126 (bioRxiv, 2024)

How the values were obtained:
[1] = molecular target: T1, PPM1D (Homo sapiens, UniProt O15297); test: SPR; type: binding
T1 sequence (O15297 1-420): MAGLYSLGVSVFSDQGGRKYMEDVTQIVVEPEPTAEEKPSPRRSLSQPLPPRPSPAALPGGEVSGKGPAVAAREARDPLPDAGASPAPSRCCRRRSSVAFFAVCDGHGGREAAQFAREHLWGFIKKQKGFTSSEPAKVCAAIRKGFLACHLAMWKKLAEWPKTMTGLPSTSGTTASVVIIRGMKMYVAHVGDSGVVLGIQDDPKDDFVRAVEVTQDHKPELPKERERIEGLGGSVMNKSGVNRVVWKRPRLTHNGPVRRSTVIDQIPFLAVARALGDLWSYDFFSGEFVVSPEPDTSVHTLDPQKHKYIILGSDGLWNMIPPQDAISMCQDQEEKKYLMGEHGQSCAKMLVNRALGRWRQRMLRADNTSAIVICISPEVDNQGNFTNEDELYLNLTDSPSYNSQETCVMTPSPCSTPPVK

[2] = test system: MOLM13 TP53 WT (MOLM13-tPPM1D); test: cells; conditions: Homo sapiens, MOLM-13, read-out: 461 / 5.3 / 107
[3] = test system: K562 p21-ffLuc reporter (wildtype TP53); test: cells; conditions: Homo sapiens, K562, read-out: 461 / 5.3 / 107
[4] = test system: PPM1D in MOLM13-tPPM1D cells; test: cells; conditions: read-out: 461 / 5.3 / 107
[5] = molecular target: T1, PPM1D; test: biochemical

How did the Kd [1] turn out when `Cc1ncc(Cl)cc1NCc1ccc(C(=O)N[C@@H](CC2CCCC2)C(=O)NC2CC2)s1` [GSK2830371] was run?
The Kd was 8 nM.

And the IC50 [2]?
Its IC50 is 394 nM.

And the EC50 [3]?
The EC50 was 221 nM.

And the EC50 [4]?
The EC50 was 383 nM.

And the IC50 [5]?
The IC50 was 20 nM.
